Data on four compounds can be found in patent US11220516B2, “Nitric oxide-releasing antibiotics, methods of making, and methods of use” (University of Georgia Research Foundation, Inc., priority 2019, dated 2022).

Data set [1] is described as follows: SNAP leachate from blended CarboSil films in PBS (UV-vis absorbance at 340 nm). In kind it is physicochemical. Conditions: equimolar blend in CarboSil films, PBS at 37° C., end of 4 day study. As to the method: Leaching of SNAPicillin and SNAP was done by first blending equimolar amounts of the corresponding chemical (33.33 μmol mL^−1) into solutions of CarboSil dissolved in THF (50 mg mL^−1) and subsequently cast into Teflon molds to dry overnight. The dried films were then weighed and measured before being submerged into PBS. Quantification of SNAP leaching into solution was done by measuring absorbance at 340 nm via UV-vis analysis.
(§1) One issue holding back using the direct administration of NO donors as an effective therapeutic is its short half-life. To address this, a common method for controlling and directing the NO release of a donor in a localized and targeted area is to encapsulate it within a polymer. This strategy is also used for antibiotics and antiseptics as well, as catheters have been fabricated with physically blended drugs to combat and prevent infection.^28-30 One key advantage for modifying the ampicillin with SNAP was its change in solubility. A large majority of antibiotics are not soluble in organic solvents, limiting its ability to evenly disperse within polymer matrices when coated or impregnated within the bulk material. […] The polymer films were measured and weighed before being immersed in PBS at 37° C. and were periodically taken out to examine either SNAP or ampicillin leachates (FIGS. 3A-3B). […]

Data set [2] can be described thus: NO release kinetics of 500 μM solutions (Sievers 280i Nitric Oxide Analyzer). The format is physicochemical. Conditions: 500 μM in PBS (pH 7.4) with EDTA, 37° C., 4 h. As to the method:
(§2) Real time NO release was measured using a Sievers 280i NOA (Nitric Oxide Analyzer). Polymer films containing SNAPicillin or SNAP were immersed in amber reaction vessels containing PBS (pH 7.4) with 100 μM EDTA to chelate any metal ion contaminants within the buffer. Solutions were continuously purged with a nitrogen sweep gas and bubbler to carry the NO from the solution directly to the NOA. In a separate NO releasing study, solutions containing 500 μM of either SNAPicillin or SNAP in PBS with EDTA were also tested under physiological conditions to obtain the stabilized NO release profile to compare passive release kinetics.
The NO release of the synthesized SNAPicillin was compared to pure SNAP by dissolving equimolar (500 μM) amounts of each into separate solutions of PBS (pH 7.4) containing 0.01 mM EDTA and placing them in an amber reaction vial submerged within a water bath at 37° C. while NO release was monitored in real time. Nitrogen gas was used to continuously purge the solution to examine the stabilized, passive release under these conditions. […] Although equimolar amounts of each component were used, the RSNO component on the SNAPicillin appears to be less reactive when compared to pure crystalline SNAP under physiological conditions.

A short description of data set [3]: NO release from blended CarboSil polymer films over 7 days and NO donor remaining (UV-VIS). Conditions: for NO donor remaining within the CarboSil polymer films: 168 h. The format is physicochemical. As to the method: as §2
A separate NO release study was also done by physically blending equimolar amounts into solutions of CarboSil, and solvent casting a thin polymer film to be analyzed. Since polymer films blended with SNAP are a common strategy to create a surface with controlled, localized NO release, a comparison of NO release was done using SNAPicillin containing polymer films to examine its potential as an alternative novel NO donor. The fabricated films were placed in PBS (pH 7.4) containing 0.01 mM EDTA at 37° C. to observe the real time NO releasing kinetics. […] This is contrary to the pure solutions that were previously placed under physiological conditions, where SNAP was able to have a higher initial release. The difference is most likely is due to the leaching rate of either SNAP or SNAPicillin from a hydrophobic polymer matrix.
The amount of NO donor remaining in the films was also quantified using UV-VIS after this time period to examine the potential release beyond the recorded 7 days. […] As mentioned previously, due to the larger molecular weight of SNAPicillin, it was able to stay within the CarboSil matrix for a longer period of time when compared to SNAP blended films. This further emphasizes the versatility of the SNAPicillin donor as a possible RSNO donor substitute for NO releasing polymers that require sustained or controlled release kinetics with the additional antimicrobial functionality.

For another data set, the system named is S. aureus. The data set can be described thus: Zone of inhibition assay (agar diffusion) of blended CarboSil films. In kind it is cell-based, Staphylococcus aureus (ATCC 6538). The following applies: 8 mm diameter; for ZOI values against S. aureus: overnight at 37° C. As to the method:
Zone of inhibition (ZOI) testing was done on polymer films containing the same composition of either ampicillin, SNAP, or SNAPicillin used in the leachate and NOA studies. A standard agar diffusion protocol was followed and tested against S. aureus. A single colony of bacterium was suspended into LB and incubated at 37° C. for 14 h while being rotated at 150 rpm. The optical density of each bacterial culture was then measured at 600 nm using a UV-Vis spectrophotometer. The observed optical density was adjusted to 1×10^7 colony forming units per mL using a standard calibration curve of each corresponding bacteria. A sterile cotton swab was then used to dip into each culture media and spread onto premade LB-agar petri dishes. The polymer films of either ampicillin, SNAP, SNAPicillin, along with controls (diameter: 8 mm, thickness: 200 μm) were then placed on top of the petri dishes and allowed to incubate overnight at 37° C. The ZOI was then measured and compared the following day to observe the antimicrobial effects of synthesized SNAPicillin molecule within a hydrophobic matrix.
A significant advantage of using targeted antibiotics over NO releasing polymers is seen in its ability to prevent bacteria growth. […] To ensure the SNAP attachment to ampicillin was not interfering with this targeted potency, a zone of inhibition (ZOI) test against S. aureus was done. […] This trend has been seen in the past with NO releasing hydrophobic polymers, where the ZOI is extremely limited beyond the interface of the polymer itself.^32
The characterization of covalent attachment of SNAP was verified through FTIR (Fourier Transform Infrared Spectroscopy) and NMR (Nuclear Magnetic Resonance Spectroscopy) and its NO releasing characteristics were compared to pure, unmodified SNAP. The combination of both NO and ampicillin in one unique compound allows for the dispersal of biofilms while making them more susceptible to the antibiotic moiety. […]
Background: Agar diffusion results depend on both activity and mobility in agar.

Data set [4] relates to 48 h old preformed S. aureus biofilms. The data set can be described thus: Biofilm dispersal assay on CarboSil polymer films. The format is cell-based, Staphylococcus aureus (ATCC 6538). Conditions: for reduction in planktonic bacteria in solution: bacteria shed from 48 h S. aureus biofilm; for inhibition at 500 µM: Staphylococcus aureus, read-out: reduction of viable bacteria adhered on the films (biofilm). As to the method: Biofilms were grown for 48 h on circular CarboSil polymer films fabricated with a surface area of 1 cm^2. Solutions of S. aureus were prepared by placing one colony of bacteria in Luria Broth and incubated at 37° C. until the solution reached approximately 10^6 to 10^8 CFU mL^−1. Each polymer film was suspended in 2 mL of the bacteria solution and the solution was replenished with a fresh bacteria solution at 24 h of incubation. For the duration of the study the samples were incubated on a shaker at 150 rpms. After 48 h, the films were removed from the bacteria solutions and each film was gently rinsed with 5 ml of sterile PBS to remove any planktonic bacteria. The films were next incubated with 1 mL their specified test solutions and each solution type was tested at n=4. Each test solution was prepared with sterilized PBS and calculated to contain either 500 μM of ampicillin, SNAP, or SNAPicillin. After 24 h, the polymer films were removed from the test solutions, gently rinsed with PBS to remove planktonic bacteria, and homogenized in sterile PBS to remove any viable bacteria from the biofilm. The collected bacteria were serially diluted, plated on LB agar, and incubated for 18 h to achieve countable CFUs for comparison. A similar procedure was then done for the planktonic bacteria suspended in the solution of the incubated films to observe viable bacteria that shed from the potentially dispersed biofilms.
While NO release from SNAP may have difficulties diffusing through agar for disk diffusion testing, it is extremely potent at dispersing biofilms. […] The polymer films were then immersed into solutions containing either ampicillin, SNAP, or SNAPicillin at a concentration of 500 μM and the adhered bacteria remaining on the film as well as the planktonic bacteria within the solutions were observed (FIGS. 7 and 8).

For the next data set, the system named is biofilms. The following applies: as low as; cited from earlier work.
Data set [5] in a line: Ampicillin leachate from blended CarboSil films in PBS with EDTA (alkaline potassium permanganate oxidation). The format is physicochemical. Conditions: equimolar blend in CarboSil films, PBS at 37° C., 4 days.
Description: Ampicillin eachate from CarboSil films was done by making polymer solutions with equimolar amounts of SNAPicillin and ampicillin. Ampicillin was first dissolve in a small amount of methanol before being added to CarboSil in THF solutions and then solvent casted into Teflon molds. Films were then weighed and immersed in PBS containing EDTA. Quantification of ampicillin leaching into solution was done via the oxidation reaction with alkaline potassium permanganate following a previously established protocol.^24
as §1, with “solubility.” for “solubility. A large majority of antibiotics are not soluble in organic solvents, limiting its ability to evenly disperse within polymer matrices when coated or impregnated within the bulk material.”

Where [6] appears, read: 500 μM solution in PBS, 24 h treatment.
Where [7] appears, read: 500 μM solution in PBS, 24 h treatment, 48 h S. aureus biofilm.

Read-outs that look alike come from different tables or passages of the source.

Consider `CC(=O)N[C@H](C(=O)O)C(C)(C)SN=O` (racemic) [SNAP, S-nitroso-N-acetylpenicillamine], for which the “cumulative leaching from films, SNAP leaching study” value in data set [1] is 1.307±0.536 μmol cm-2. Further, in data set [2], the “stabilized passive NO release rate of solutions” value was “slightly higher rate of NO release than SNAPicillin solutions”. Moreover, the “NO donor remaining within the CarboSil polymer films” value in data set [3] (pH 7.4) is listed as 0.25±0.17%. In addition, in the data set with S. aureus, the “zone of inhibition against S. aureus, in words” value is recorded as “only killing bacteria directly in contact with the film”. Further, the “reduction in planktonic bacteria in solution” value (shortened to “reduction … in solution”) in data set [4] (setting [6]) amounted to 96.2±1.15%. For the same compound, in data set [4], the inhibition at 500 µM is 99.2 ± 0.762%.

For the compound `[N]=O` [NO, nitric oxide], the “concentration of NO able to trigger the biofilm dispersal mechanism” value in the data set with biofilms was 450 pM.

With `CC(=O)NC(C(=O)NC(C(=O)NC1C(=O)N2C1SC(C)(C)C2C(=O)O)c1ccccc1)C(C)(C)SN=O` (stereo not drawn) [SNAPicillin], the “cumulative leaching from films, SNAP leaching study” value in data set [1] was found to be 0.051±0.10 μmol cm-2. The “cumulative leaching from films, ampicillin study” value in data set [5] is reported as 0.043±0.003 μmol cm^−2. Further, the “NO donor remaining within the CarboSil polymer films” value in data set [3] was determined as 21.9±1.72%. Besides, the “NO flux from blended films” value in data set [3] (equimolar blend in CarboSil films, PBS (pH 7.4) with EDTA, 37° C., 7 days) is given as “higher NO fluxes at every time point when compared to SNAP”. Further, in the data set on S. aureus, the “ZOI values against S. aureus” value came out at 34.0±1.40 mm. The “reduction of viable bacteria adhered on the films (biofilm)” value in data set [4] (setting [7]) is given as 99.9±0.18%. Further, the “reduction … in solution” value in data set [4] (setting [6]) was found to be 99.5±0.264%.

Consider `CC1(C)S[C@@H]2[C@H](NC(=O)[C@H](N)c3ccccc3)C(=O)N2[C@H]1C(=O)O` [ampicillin], for which the “cumulative leaching from films, ampicillin study” value in data set [5] was 0.087±0.003 μmol cm^−2. In addition, the “ZOI values against S. aureus” value with S. aureus worked out at 34.5±1.50 mm. In addition, the “reduction … in solution” value in data set [4] (setting [6]) is recorded as 90.0±1.13%. In addition, the inhibition at 500 µM in data set [4] (setting [7]) came out at 28.9 ± 5.89%.
